Values of other authors in patent publication US20160310431A1, “Three-Phase System for Modified Release of a Non-Steroidal Antiinflammatory” (priority 2013, published 2016).
Like-named read-outs stand apart in the source and are kept apart here.

How the values were obtained:
[1] = intramuscular administration
[2] = not given; remark: listed apart in the source
[3] = system: plasma proteins
[4] = system: COX-1 and COX-2; details: COX-1 vs COX-2
[5] = intramuscular administration, single dose of 30 mg

SMILES: O=C(c1ccccc1)c1ccc2n1CCC2C(=O)O (centres unmarked) [Ketorolac tromethamine]
- appearance of analgesic effect [1]: first half hour
- duration of analgesic effect [1]: 4 to 6 h
- peak of analgesic effect [1]: 1 to 2 h
- maximum plasma concentration [5]: 2.2 µg/mL
- time at which maximum plasma concentration appears [5]: 50 min
- time at which maximum plasma concentration appears (intravenous administration): 5.4 min
- time at which maximum plasma concentration appears (oral administration, tablets or capsules): 180 min
- absorption (orally and parenterally): rapidly and completely absorbed

SMILES: O=C(c1ccccc1)c1ccc2n1CCC2C(=O)O (centres unmarked) [Ketorolac]
- metabolized via the liver by conjugation ([2]; inactive metabolites): 21%
- excreted as a conjugated metabolite ([2]; renal excretion): 21.9%
- excreted as the drug without changes ([2]; renal excretion): 60.2%
- excreted hydroxylated ([2]; renal excretion): 11.5%
- binding to plasma proteins [3]: 99%
- selectivity for COX isoforms [4]: not being selective for any of the isoforms
